{"source": "patent US7122577B1", "about": "“Composition comprising a carrier and a purified mycobacterial lipid cell-wall component and its use in the treatment and diagnosis of disease” (priority 1997, dated 2006)", "test_system": "adjuvant arthritis", "conditions": "rat, in vivo", "data": [{"substance": "mycolic acids [MA tb]", "values": [{"measurement": "Toxic effects", "value": "No toxic effects"}, {"measurement": "Toxic effects within the tested doses", "value": "No toxic effects"}]}]}
